Patent US20190076464A1, “CYTIDINE DEAMINASE INHIBITORS FOR THE TREATMENT OF PANCREATIC CANCER” (INSERM (OMSTOTIT NATIONAL DE LA SANTÉ ET DE LA RECHERCHE …, priority 2016, published 2019)

How the values were obtained:
[1] = test system: cancer cell proliferation; experiment: Cancer cell proliferation, CDA targeting combined with metabolic inhibitor (FIG. 7); type: cell-based; conditions: in combination with CDA targeting
Excerpt: This finding opens several other combinatory therapeutic options as glutaminase (CB-839, FIG. 7) and α-KG dehydrogenase (CPI-613, a lipoate analog, inhibits mitochondrial enzymes pyruvate dehydrogenase (PDH) and α-KG dehydrogenase in NCI-H460 cell line, disrupts tumor cell mitochondrial metabolism) inhibitors are being evaluated clinically for PDA subjects^53.

pancreatic cancer cells [2] = experiment: Tumor metabolism (NAD+/NADH ratio) under pharmacological inhibition of CDA (FIG. 6C); type: cell-based, human; conditions: CDA inhibitor alone, FIG. 6C (NAD+/NADH ratio)
Excerpt: Accordingly, we measure the glycolytic flux in CDA-deficient cells and the expression of key proteins involved in glycolysis in response to CDA targeting.

pancreatic cancer cells [3] = experiment: Sensitization of pancreatic cancer cells to gemcitabine by pharmacological inhibition of CDA (FIG. 6A); type: cell-based, human; conditions: in vitro, CDA inhibitor combined with gemcitabine
pancreatic cancer cells [4] = experiment: Cell proliferation under pharmacological inhibition of CDA, without chemotherapy (FIG. 6B); type: cell-based, human; conditions: CDA inhibitor alone
PDA = conditions: in combination with gemcitabine, compared with gemcitabine alone, reference 6; cited from earlier work
[5] = test system: gemcitabine-resistant cells; conditions: reference 13; cited from earlier work

O=CC[C@@H](O)[C@H](O)[C@H](O)CO [2-deoxy Glucose]
cancer cell proliferation [1]: strongly inhibits cancer cell proliferation

O=C(Cc1cccc(OC(F)(F)F)c1)Nc1ccc(CCCCc2nnc(NC(=O)Cc3ccccn3)s2)nn1 [CB839]
cancer cell proliferation [1]: strongly inhibits cancer cell proliferation

O=C1NCC=CCN1[C@@H]1O[C@H](CO)[C@@H](O)[C@H]1O [DR, 1,3-diazepinone riboside]
tumor metabolism (pancreatic cancer cells [2]): fails to alter
sensitization to gemcitabine (pancreatic cancer cells [3]): sensitizes pancreatic cancer cells to gemcitabine
cell proliferation (pancreatic cancer cells [4]): fails to alter cell proliferation

C#Cc1cccc(Nc2ncnc3cc(OCCOC)c(OCCOC)cc23)c1 [Erlotinib]
overall survival time (PDA): only slightly increases overall survival time

O=C1NC(O)CCN1[C@@H]1O[C@H](CO)[C@@H](O)[C@H]1O (stereo partly shown) [THU, Tetrahydrouridine]
sensitivity to gemcitabine [5]: increases the sensitivity to gemcitabine
